target: wild-type human cardiac sodium channel, hNav1.5 (Homo sapiens, UniProt Q14524); test: Late INa screening assay (automated whole cell patch clamp, PatchXpress); assay type: cell-based; settings: compound at 1 μM; HEK293 cells expressing hNav1.5; late INa generated with 10 μM Tefluthrin (or 50 nM ATX II); read-out: LateINa_1 uM (percent block of late INa)
Outline: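 Late sodium current through wild-type human hNav1.5 stably expressed in HEK293 cells (no beta subunits) was recorded by automated whole-cell patch clamp on a PatchXpress 7000A at 24-27° C. Late INa was induced with 10 μM Tefluthrin or 50 nM ATX II. Cells were stepped from −120 mV to −20 mV for 250 ms at 0.1 Hz, and percent block was normalized to current in Na-free extracellular solution.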

Sequence of wild-type human cardiac sodium channel, hNav1.5 (Q14524 whole entry): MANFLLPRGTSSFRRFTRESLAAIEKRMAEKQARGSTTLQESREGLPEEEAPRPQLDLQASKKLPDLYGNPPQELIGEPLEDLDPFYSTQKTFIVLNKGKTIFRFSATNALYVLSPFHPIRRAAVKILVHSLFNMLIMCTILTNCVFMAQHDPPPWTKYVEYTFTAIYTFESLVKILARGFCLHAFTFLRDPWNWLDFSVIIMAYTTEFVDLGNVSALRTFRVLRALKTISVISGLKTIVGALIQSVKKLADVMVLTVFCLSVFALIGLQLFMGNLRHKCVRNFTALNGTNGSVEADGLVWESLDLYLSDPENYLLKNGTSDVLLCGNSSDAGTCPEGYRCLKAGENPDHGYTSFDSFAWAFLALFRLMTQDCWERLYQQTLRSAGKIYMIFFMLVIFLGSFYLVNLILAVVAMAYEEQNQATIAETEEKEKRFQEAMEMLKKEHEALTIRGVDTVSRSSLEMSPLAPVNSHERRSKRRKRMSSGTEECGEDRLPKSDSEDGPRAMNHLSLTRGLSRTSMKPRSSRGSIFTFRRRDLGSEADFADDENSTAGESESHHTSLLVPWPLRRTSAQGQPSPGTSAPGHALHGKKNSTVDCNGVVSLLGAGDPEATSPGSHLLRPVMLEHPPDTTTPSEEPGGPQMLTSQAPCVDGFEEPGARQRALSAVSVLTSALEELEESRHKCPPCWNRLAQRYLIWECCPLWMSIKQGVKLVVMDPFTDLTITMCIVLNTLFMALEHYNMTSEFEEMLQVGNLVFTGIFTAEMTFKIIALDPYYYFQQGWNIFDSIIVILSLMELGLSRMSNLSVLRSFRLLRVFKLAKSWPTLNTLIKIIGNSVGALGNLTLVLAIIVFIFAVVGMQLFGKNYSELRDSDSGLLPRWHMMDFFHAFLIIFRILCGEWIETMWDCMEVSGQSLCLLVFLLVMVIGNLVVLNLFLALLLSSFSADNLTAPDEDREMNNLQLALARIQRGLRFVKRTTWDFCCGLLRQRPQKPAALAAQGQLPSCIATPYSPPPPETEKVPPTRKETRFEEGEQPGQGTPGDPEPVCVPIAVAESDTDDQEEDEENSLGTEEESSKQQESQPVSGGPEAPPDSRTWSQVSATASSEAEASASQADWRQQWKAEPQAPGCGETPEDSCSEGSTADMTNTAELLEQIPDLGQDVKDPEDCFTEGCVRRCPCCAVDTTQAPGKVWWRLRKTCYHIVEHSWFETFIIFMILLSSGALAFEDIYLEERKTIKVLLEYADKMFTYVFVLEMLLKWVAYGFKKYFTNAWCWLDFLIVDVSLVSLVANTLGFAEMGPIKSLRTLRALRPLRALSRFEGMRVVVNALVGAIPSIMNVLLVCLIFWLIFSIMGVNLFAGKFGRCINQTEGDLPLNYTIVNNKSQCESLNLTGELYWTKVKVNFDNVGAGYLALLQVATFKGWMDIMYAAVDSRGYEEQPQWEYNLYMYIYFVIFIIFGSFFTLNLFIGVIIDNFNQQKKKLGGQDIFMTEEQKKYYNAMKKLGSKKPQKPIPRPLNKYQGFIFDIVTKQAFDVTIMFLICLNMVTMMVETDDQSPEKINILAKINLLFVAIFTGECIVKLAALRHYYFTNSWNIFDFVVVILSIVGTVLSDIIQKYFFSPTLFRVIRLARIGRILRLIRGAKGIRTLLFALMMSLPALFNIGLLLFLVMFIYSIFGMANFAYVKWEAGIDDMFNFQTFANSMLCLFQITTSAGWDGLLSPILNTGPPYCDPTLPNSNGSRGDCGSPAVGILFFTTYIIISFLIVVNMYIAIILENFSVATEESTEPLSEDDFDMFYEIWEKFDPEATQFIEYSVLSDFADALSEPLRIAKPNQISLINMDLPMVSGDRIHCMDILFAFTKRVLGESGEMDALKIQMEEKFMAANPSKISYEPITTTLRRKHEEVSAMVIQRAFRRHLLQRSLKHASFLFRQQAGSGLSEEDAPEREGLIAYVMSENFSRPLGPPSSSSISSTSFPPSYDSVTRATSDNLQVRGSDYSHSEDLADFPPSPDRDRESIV

In order of falling inhibition at 1 µM:
1. CC(OCc1nnc2ccc(-c3ccc(OC(F)(F)F)cc3)cn12)c1ccccc1 (centres unmarked) [BHN-246, 3-[(1-phenylethoxy)methyl]-6-[4-(trifluoromethoxy)phenyl][1,2,4]triazolo[4,3-a]pyridine]  85.8%
2. Fc1ccc(COCc2nnc3ccc(-c4ccc(OC(F)(F)F)cc4)cn23)c(F)c1 [BHN-240, 3-{[(2,4-difluorobenzyl)oxy]methyl}-6-[4-(trifluoromethoxy)phenyl][1,2,4]triazolo[4,3-a]pyridine]  83.4%
3. Cc1c(-c2ccc(OC(F)(F)F)cc2)ccc2nnc(C(F)(F)F)n12 [BHN-202, 5-methyl-6-[4-(trifluoromethoxy)phenyl]-3-(trifluoromethyl)[1,2,4]triazolo[4,3-a]pyridine]  74.2%
4. FC(F)(F)Oc1ccc(-c2ccc3nnc(C(F)(F)OCc4noc(C5CCC5)n4)n3c2)cc1 [BHN-259, 3-{[(5-cyclobutyl-1,2,4-oxadiazol-3-yl)methoxy](difluoro)methyl}-6-[4-(trifluoromethoxy)phenyl][1,2,4]triazolo[4,3-a]pyridine]  71.6%
5. FC(F)(F)Oc1ccc(-c2ccc3nnc(C(F)(F)Cl)n3c2)cc1 [BHN-308, 3-[chloro(difluoro)methyl]-6-[4-(trifluoromethoxy)phenyl][1,2,4]triazolo[4,3-a]pyridine]  71.2%
6. Cc1cccc(C)c1OCCOC(F)(F)c1nnc2ccc(-c3ccc(OC(F)(F)F)cc3)cn12 [BHN-285, 3-{[2-(2,6-dimethylphenoxy)ethoxy](difluoro)methyl}-6-[4-(trifluoromethoxy)phenyl][1,2,4]triazolo[4,3-a]pyridine]  68%
7. CCOc1cc(OC(F)(F)F)ccc1-c1ccc2nnc(C(F)(F)F)n2c1 [BHN-222, 6-[2-ethoxy-4-(trifluoromethoxy)phenyl]-3-(trifluoromethyl)[1,2,4]triazolo[4,3-a]pyridine]  65.3%
8. FC(F)(F)Oc1ccc(-c2ccc3nnc(C(F)(F)OCc4ccc5c(c4)OC(F)(F)O5)n3c2)cc1 [BHN-225, 3-{[(2,2-difluoro-1,3-benzodioxol-5-yl)methoxy](difluoro)methyl}-6-[4-(trifluoromethoxy)phenyl][1,2,4]triazolo[4,3-a]pyridine]  63%
9. Fc1cc(-c2ccc3nnc(C(F)(F)F)n3n2)ccc1OC(F)(F)F [BHN-209, 6-[3-fluoro-4-(trifluoromethoxy)phenyl]-3-(trifluoromethyl)[1,2,4]triazolo[4,3-b]pyridazine]  61%
10. FC(F)(F)Oc1ccc(-c2ccc3nnc(C(F)(F)OCc4cccc(-c5ncccn5)c4)n3c2)cc1 [BHN-305, 3-(difluoro{[3-(pyrimidin-2-yl)benzyl]oxy}methyl)-6-[4-(trifluoromethoxy)phenyl][1,2,4]triazolo[4,3-a]pyridine]  59.6%
11. FC(F)(F)Oc1ccc(-c2ccc3nnc(C(F)(F)OCc4ccnc5ccccc45)n3c2)cc1 [BHN-212, 4-[(difluoro{6-[4-(trifluoromethoxy)phenyl][1,2,4]triazolo[4,3-a]pyridin-3-yl}methoxy)methyl]quinoline]  59.6%
12. FC(F)(F)COc1ccc(-c2ccc3nnc(C(F)(F)F)n3n2)cn1 [BHN-221, 6-[6-(2,2,2-trifluoroethoxy)pyridin-3-yl]-3-(trifluoromethyl)[1,2,4]triazolo[4,3-b]pyridazine]  55%
13. COCC(F)(F)c1nnc2ccc(-c3ccc(Oc4ccc(Cl)cc4)cc3)cn12 [BHN-137, 6-[4-(4-chlorophenoxy)phenyl]-3-(1,1-difluoro-2-methoxyethyl)[1,2,4]triazolo[4,3-a]pyridine]  48.2%
14. COCC(F)(F)c1nnc2ccc(-c3ccc(OC(F)(F)F)cc3)cn12 [BHN-74, 3-(1,1-difluoro-2-methoxyethyl)-6-[4-(trifluoromethoxy)phenyl][1,2,4]triazolo[4,3-a]pyridine]  46.9%
15. FC(F)(F)Oc1ccc(-c2ccc3nnc(C(F)(F)OCc4cccc(-n5cnc(C6CC6)c5)c4)n3c2)cc1 [BHN-317, 3-[{[3-(4-cyclopropyl-1H-imidazol-1-yl)benzyl]oxy}(difluoro)methyl]-6-[4-(trifluoromethoxy)phenyl][1,2,4]triazolo[4,3-a]pyridine]  46.4%
16. CC(OC(F)(F)c1nnc2ccc(-c3ccc(OC(F)(F)F)cc3)cn12)c1ccccn1 (centres unmarked) [BHN-230, 3-{difluoro[1-(pyridin-2-yl)ethoxy]methyl}-6-[4-(trifluoromethoxy)phenyl][1,2,4]triazolo[4,3-a]pyridine]  42.3%
17. COCC(F)(F)c1nnc2ccc(-c3ccc(OC(F)(F)F)cc3C)cn12 [BHN-200, 3-(1,1-difluoro-2-methoxyethyl)-6-[2-methyl-4-(trifluoromethoxy)phenyl][1,2,4]triazolo[4,3-a]pyridine]  40.8%
18. CC1(COC(F)(F)c2nnc3ccc(-c4ccc(OC(F)(F)F)cc4)cn23)COC1 [BHN-142, 3-{difluoro[(3-methyloxetan-3-yl)methoxy]methyl}-6-[4-(trifluoromethoxy)phenyl][1,2,4]triazolo[4,3-a]pyridine]  38.8%
19. CSc1ccc(-c2ccc3cnc(C(F)(F)F)n3c2)cn1 [BHN-101, 6-[6-(methylsulfanyl)pyridin-3-yl]-3-(trifluoromethyl)imidazo[1,5-a]pyridine]  32.3%
20. CC(C)(O)C#Cc1nnc2ccc(-c3ccc(OC(F)(F)F)cc3)cn12 [BHN-173, 2-methyl-4-{6-[4-(trifluoromethoxy)phenyl][1,2,4]triazolo[4,3-a]pyridin-3-yl}but-3-yn-2-ol]  30.8%
21. O=[N+]([O-])c1ccc(-c2ccc3nnc(C(F)(F)F)n3c2)c(Cl)c1 [BHN-292, 6-(2-chloro-4-nitrophenyl)-3-(trifluoromethyl)[1,2,4]triazolo[4,3-a]pyridine]  26%
22. N#CC1(c2ccc(-c3ccc4nnc(C(F)(F)F)n4c3)cc2)CCOCC1 [BHN-254, 4-{4-[3-(trifluoromethyl)[1,2,4]triazolo[4,3-a]pyridin-6-yl]phenyl}tetrahydro-2H-pyran-4-carbonitrile]  24.6%
23. CC(OCc1ccccn1)c1nnc2ccc(-c3ccc(OC(F)(F)F)cc3)cn12 (centres unmarked) [BHN-255, 3-[1-(pyridin-2-ylmethoxy)ethyl]-6-[4-(trifluoromethoxy)phenyl][1,2,4]triazolo[4,3-a]pyridine]  22.8%
24. OCc1nnc2ccc(-c3ccc(OC(F)(F)F)cc3)cn12 [BHN-130, {6-[4-(trifluoromethoxy)phenyl][1,2,4]triazolo[4,3-a]pyridin-3-yl}methanol]  21.9%
25. FC(F)(F)c1nnc2ccc(-c3cccc4ccccc34)cn12 [BHN-120, 6-(naphthalen-1-yl)-3-(trifluoromethyl)[1,2,4]triazolo[4,3-a]pyridine]  20.4%
26. CNC(=O)c1cccc(-c2nnc3ccc(-c4ccc(OC(F)(F)F)cc4)cn23)c1 [BHN-99, N-methyl-3-{6-[4-(trifluoromethoxy)phenyl][1,2,4]triazolo[4,3-a]pyridin-3-yl}benzamide]  19.6%
27. FC(F)(F)Oc1ccc(-c2ccc3nnc(C(F)(F)F)n3c2)cc1-c1nnco1 [BHN-153, 6-[3-(1,3,4-oxadiazol-2-yl)-4-(trifluoromethoxy)phenyl]-3-(trifluoromethyl)[1,2,4]triazolo[4,3-a]pyridine]  17.2%
28. OC(c1nnc2ccc(-c3ccc(OC(F)(F)F)cc3)cn12)C(F)(F)F (centres unmarked) [BHN-155, 2,2,2-trifluoro-1-{6-[4-(trifluoromethoxy)phenyl][1,2,4]triazolo[4,3-a]pyridin-3-yl}ethanol]  16.2%

same assay, conditions: compound at 10 μM; HEK293 cells expressing hNav1.5; late INa generated with 10 μM Tefluthrin (or 50 nM ATX II); read-out: LateINa_10 uM (percent block of late INa)

In order of falling inhibition at 10 µM:
1. COCC(F)(F)c1nnc2ccc(-c3ccc(OC(F)(F)F)cc3)cn12 [BHN-74, 3-(1,1-difluoro-2-methoxyethyl)-6-[4-(trifluoromethoxy)phenyl][1,2,4]triazolo[4,3-a]pyridine]  67%
2. CC(C)(C)c1nnc2ccc(-c3ccc(OCC(F)(F)F)cc3)nn12 [BHN-36, 3-tert-butyl-6-[4-(2,2,2-trifluoroethoxy)phenyl][1,2,4]triazolo[4,3-b]pyridazine]  64.5%
3. FC(F)(F)c1ccc(-c2ccc3nnc(C(F)(F)F)n3c2)cn1 [BHN-91, 3-(trifluoromethyl)-6-[6-(trifluoromethyl)pyridin-3-yl][1,2,4]triazolo[4,3-a]pyridine]  46.7%
4. COc1ccc(-c2ccc3nnc(-c4cccc(C#N)c4)n3n2)cc1 [BHN-45, 3-[6-(4-methoxyphenyl)[1,2,4]triazolo[4,3-b]pyridazin-3-yl]benzonitrile]  36.3%
5. Cn1cc(-c2nnc3ccc(-c4ccc(Oc5ccccc5)cc4)nn23)cn1 [BHN-43, 3-(1-methyl-1H-pyrazol-4-yl)-6-(4-phenoxyphenyl)[1,2,4]triazolo[4,3-b]pyridazine]  25.2%
6. FC(F)(F)c1nnc2ccc(-c3ccc(-n4cncn4)cc3)cn12 [BHN-61, 6-[4-(1H-1,2,4-triazol-1-yl)phenyl]-3-(trifluoromethyl)[1,2,4]triazolo[4,3-a]pyridine]  23.5%
7. Cc1nnc(-c2ccc(-c3ccc4nnc(C(F)(F)F)n4c3)cc2)o1 [BHN-71, 6-[4-(5-methyl-1,3,4-oxadiazol-2-yl)phenyl]-3-(trifluoromethyl)[1,2,4]triazolo[4,3-a]pyridine]  20.5%
8. CCC(=O)Nc1cc(-c2ccc(OC(F)(F)F)cc2)cn2c(C)nnc12 [BHN-85, N-{3-methyl-6-[4-(trifluoromethoxy)phenyl][1,2,4]triazolo[4,3-a]pyridin-8-yl}propanamide]  20.5%
9. CC(C)(O)c1ccc(-c2ccc3nnc(C(F)(F)F)n3c2)cc1 [BHN-48, 2-{4-[3-(trifluoromethyl)[1,2,4]triazolo[4,3-a]pyridin-6-yl]phenyl}propan-2-ol]  18.9%
10. COc1ccc(-c2ccc3nnc(-c4ccc(C#N)cc4)n3n2)cc1 [BHN-44, 4-[6-(4-methoxyphenyl)[1,2,4]triazolo[4,3-b]pyridazin-3-yl]benzonitrile]  15%

Reference: patent US8952034B2, “Fused heterocyclic compounds as ion channel modulators” (Gilead Sciences, Inc., priority 2009, dated 2015)
